Test results: patent US20250171457A1, “NITROGEN-CONTAINING HETEROCYCLIC COMPOUND HAVING NRF2 ACTIVATION EFFECT” (CHUGAI SEIYAKU KABUSHIKI KAISHA, priority 2022, published 2025)

System: Nrf2 transcriptional activity (pARE-Luc reporter) in HepG2 cells
Assay: In vitro Nrf2 transcriptional activity measurement by ARE-dependent reporter assay in HepG2 cell
Assay type: cell-based, human
Conditions: Homo sapiens; HepG2 cells transfected with pARE-Luc, 4 hours at 37° C.; luciferase activity of Example 1-54 or Example 17-23 at 3.75 μM defined as 100%
Method in brief: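 HepG2 cells transfected with pGL4.37 (pARE-Luc), replated onto compound and incubated 4 h at 37° C; luciferase read by Bright-Glo luminescence. Response normalized to 100% set by a reference compound at 3.75 μM; EC50 from dose-response curve.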

SMILES | EC50 [nM]
O=C(O)c1cc(F)c(-c2cccc3c2OCN(C(=O)c2c(Cl)cc(N4CC(OCC(F)(F)F)C4)cc2Cl)C3)cc1N1C2CCC1COC2 [Compound 6-3, 4-[3-[2,6-Dichloro-4-[3-(2,2,2-trifluoroethoxy)azetidin-1-yl]benzoyl]-2,4-dihydro-1,3-benzoxazin-8-yl]-5-fluoro-2-(3-oxa-8-azabicyclo[3.2.1]octan-8-yl)benzoic acid] | 5.7
Cn1cc(-c2cc(Cl)c(C(=O)N3COc4c(cccc4-c4cc(N5CC6COCC6C5)c(C(=O)O)cc4F)C3)c(Cl)c2)cn1 (stereo not shown) [Compound 14-2, 2-(1,3,3a,4,6,6a-Hexahydrofuro[3,4-c]pyrrol-5-yl)-4-[3-[2,6-dichloro-4-(1-methylpyrazol-4-yl)benzoyl]-2,4-dihydro-1,3-benzoxazin-8-yl]-5-fluorobenzoic acid] | 6.5
CN1CCN(c2cc(Cl)c(C(=O)N3COc4c(cccc4-c4cc(N5C6CCC5COC6)c(C(=O)O)cc4F)C3)c(Cl)c2)CC(F)(F)C1 [Compound 1-45, 4-[3-[2,6-Dichloro-4-(6,6-difluoro-4-methyl-1,4-diazepan-1-yl)benzoyl]-2,4-dihydro-1,3-benzoxazin-8-yl]-5-fluoro-2-(3-oxa-8-azabicyclo[3.2.1]octan-8-yl)benzoic acid] | 3.7
O=C(O)c1cc(F)c(-c2cccc3c2OCN(C(=O)c2c(Cl)cc(N4C[C@@H]5C[C@H]4CN5C4COC4)cc2Cl)C3)cc1N1C2CCC1COC2 [Compound 10-7, 4-[3-[2,6-Dichloro-4-[(1S,4S)-5-(oxetan-3-yl)-2,5-diazabicyclo[2.2.1]heptan-2-yl]benzoyl]-2,4-dihydro-1,3-benzoxazin-8-yl]-5-fluoro-2-(3-oxa-8-azabicyclo[3.2.1]octan-8-yl)benzoic acid] | 23
CN1CCN(c2cc(Cl)c(C(=O)N3COc4c(cccc4-c4cc(N5C6CCC5COC6)c(C(=O)O)cc4F)C3)c(Cl)c2)CC12COC2 [Compound 1-34, 4-[3-[2,6-Dichloro-4-(5-methyl-2-oxa-5,8-diazaspiro[3.5]nonan-8-yl)benzoyl]-2,4-dihydro-1,3-benzoxazin-8-yl]-5-fluoro-2-(3-oxa-8-azabicyclo[3.2.1]octan-8-yl)benzoic acid] | 39
COC1CN(c2cc(Cl)c(C(=O)N3COc4c(cccc4-c4cc(N5C6CCC5COC6)c(C(=O)O)cc4F)C3)c(Cl)c2)CCO1 (stereo not shown) [Compound 1-40, 4-[3-[2,6-Dichloro-4-(2-methoxymorpholin-4-yl)benzoyl]-2,4-dihydro-1,3-benzoxazin-8-yl]-5-fluoro-2-(3-oxa-8-azabicyclo[3.2.1]octan-8-yl)benzoic acid] | 3
O=C(O)c1cc(F)c(-c2cccc3c2OCN(C(=O)c2c(Cl)cc(N4CCN(CC(F)(F)F)CC4)cc2Cl)C3)cc1N1C2CCC1COC2 [Compound 1-35, 4-[3-[2,6-Dichloro-4-[4-(2,2,2-trifluoroethyl)piperazin-1-yl]benzoyl]-2,4-dihydro-1,3-benzoxazin-8-yl]-5-fluoro-2-(3-oxa-8-azabicyclo[3.2.1]octan-8-yl)benzoic acid] | 5.8
CN1CC2CC(C1)N2c1cc(Cl)c(C(=O)N2COc3c(cccc3-c3cc(N4C5CCC4COC5)c(C(=O)O)cc3F)C2)c(Cl)c1 [Compound 9-10, 4-[3-[2,6-Dichloro-4-(3-methyl-3,6-diazabicyclo[3.1.1]heptan-6-yl)benzoyl]-2,4-dihydro-1,3-benzoxazin-8-yl]-5-fluoro-2-(3-oxa-8-azabicyclo[3.2.1]octan-8-yl)benzoic acid] | 8.8
CO[C@@H]1CCOC12CN(c1cc(Cl)c(C(=O)N3COc4c(cccc4-c4cc(N5C6CCC5COC6)c(C(=O)O)cc4F)C3)c(Cl)c1)C2 [Compound 1-30, 4-[3-[2,6-Dichloro-4-[(8R)-8-methoxy-5-oxa-2-azaspiro[3.4]octan-2-yl]benzoyl]-2,4-dihydro-1,3-benzoxazin-8-yl]-5-fluoro-2-(3-oxa-8-azabicyclo[3.2.1]octan-8-yl)benzoic acid] | 2.6
Cn1nnc2cc(-c3cc(Cl)c(C(=O)N4COc5c(cccc5-c5cc(N6C7CCC6COC7)c(C(=O)O)cc5F)C4)c(Cl)c3)cnc21 [Compound 3-9, 4-[3-[2,6-Dichloro-4-(3-methyltriazolo[4,5-b]pyridin-6-yl)benzoyl]-2,4-dihydro-1,3-benzoxazin-8-yl]-5-fluoro-2-(3-oxa-8-azabicyclo[3.2.1]octan-8-yl)benzoic acid] | 10
CC1(N2CCN(c3cc(Cl)c(C(=O)N4COc5c(cccc5-c5cc(N6CCOCC6)c(C(=O)O)cc5F)C4)c(Cl)c3)CC2)COC1 [Compound 4-57, 4-[3-[2,6-Dichloro-4-[4-(3-methyloxetan-3-yl)piperazin-1-yl]benzoyl]-2,4-dihydro-1,3-benzoxazin-8-yl]-5-fluoro-2-morpholin-4-ylbenzoic acid] | 4.8
Cn1nnc2c(-c3cc(Cl)c(C(=O)N4COc5c(cccc5-c5cc(N6C7CCC6COC7)c(C(=O)O)cc5F)C4)c(Cl)c3)ccnc21 [Compound 3-19, 4-[3-[2,6-Dichloro-4-(3-methyltriazolo[4,5-b]pyridin-7-yl)benzoyl]-2,4-dihydro-1,3-benzoxazin-8-yl]-5-fluoro-2-(3-oxa-8-azabicyclo[3.2.1]octan-8-yl)benzoic acid] | 8
C[C@@H]1CN(C)[C@@H](C)CN1c1cc(Cl)c(C(=O)N2COc3c(cccc3-c3cc(N4C5CCC4COC5)c(C(=O)O)cc3F)C2)c(Cl)c1 [Compound 9-11, 4-[3-[2,6-Dichloro-4-[(2R,5S)-2,4,5-trimethylpiperazin-1-yl]benzoyl]-2,4-dihydro-1,3-benzoxazin-8-yl]-5-fluoro-2-(3-oxa-8-azabicyclo[3.2.1]octan-8-yl)benzoic acid] | 19
CC[C@@H](c1cccc2c1CCN(C(=O)c1c(Br)cc(-c3cnn(C)c3)cc1Br)C2)[C@H](C)C(=O)O [Compound 17-10, (2S,3R)-3-[2-[2,6-Dibromo-4-(1-methylpyrazol-4-yl)benzoyl]-3,4-dihydro-1H-isoquinolin-5-yl]-2-methylpentanoic acid] | 21
Cn1cc(-c2cc(Cl)c(C(=O)N3CCc4c(cccc4-c4ccc(C(=O)O)c(N5CCOCC5)c4)C3)c(Cl)c2)cn1 [Compound 17-18, 4-[2-[2,6-Dichloro-4-(1-methylpyrazol-4-yl)benzoyl]-3,4-dihydro-1H-isoquinolin-5-yl]-2-morpholin-4-ylbenzoic acid] | 97
Cn1nnc2c(-c3cc(Cl)c(C(=O)N4COc5c(cccc5-c5cc(N6C7CCC6COC7)c(C(=O)O)cc5F)C4)c(Cl)c3)cncc21 [Compound 3-11, 4-[3-[2,6-Dichloro-4-(3-methyltriazolo[4,5-c]pyridin-7-yl)benzoyl]-2,4-dihydro-1,3-benzoxazin-8-yl]-5-fluoro-2-(3-oxa-8-azabicyclo[3.2.1]octan-8-yl)benzoic acid] | 5.7
CCC1(OC)CN(c2cc(Cl)c(C(=O)N3COc4c(cccc4-c4cc(N5C6CCC5COC6)c(C(=O)O)cc4F)C3)c(Cl)c2)C1 [Compound 4-3, 4-[3-[2,6-Dichloro-4-(3-ethyl-3-methoxyazetidin-1-yl)benzoyl]-2,4-dihydro-1,3-benzoxazin-8-yl]-5-fluoro-2-(3-oxa-8-azabicyclo[3.2.1]octan-8-yl)benzoic acid] | 1.7
CCC(CC(=O)O)c1cccc2c1C(=O)NN(C(=O)c1c(Cl)cc(-c3cnn(C)c3)cc1Cl)C2 (stereo not shown) [Compound 17-9, 3-[2-[2,6-Dichloro-4-(1-methylpyrazol-4-yl)benzoyl]-4-oxo-1,3-dihydrophthalazin-5-yl]pentanoic acid] | 21
CN1CCC(Oc2cc(Cl)c(C(=O)N3COc4c(cccc4-c4cc(N5CCOCC5)c(C(=O)O)cc4F)C3)c(Cl)c2)CC1 [Compound 4-52, 4-[3-[2,6-Dichloro-4-(1-methylpiperidin-4-yl)oxybenzoyl]-2,4-dihydro-1,3-benzoxazin-8-yl]-5-fluoro-2-morpholin-4-ylbenzoic acid] | 1.1
O=C(O)c1cc(F)c(-c2cccc3c2OCN(C(=O)c2c(Cl)cc(-c4cc5ccccc5o4)cc2Cl)C3)cc1N1C2CCC1COC2 [Compound 3-23, 4-[3-[4-(1-Benzofuran-2-yl)-2,6-dichlorobenzoyl]-2,4-dihydro-1,3-benzoxazin-8-yl]-5-fluoro-2-(3-oxa-8-azabicyclo[3.2.1]octan-8-yl)benzoic acid] | 21
COCCN1CCN(c2cc(Cl)c(C(=O)N3COc4c(ccc(F)c4-c4cc(N5CCOCC5)c(C(=O)O)cc4F)C3)c(Cl)c2)CC1 [Compound 1-81, 4-[3-[2,6-Dichloro-4-[4-(2-methoxyethyl)piperazin-1-yl]benzoyl]-7-fluoro-2,4-dihydro-1,3-benzoxazin-8-yl]-5-fluoro-2-morpholin-4-ylbenzoic acid] | 5.1
CN1CCN(c2cc(Cl)c(C(=O)N3COc4c(cccc4-c4cc(N5CCOCC5)c(C(=O)O)cc4F)C3)c(Cl)c2)CC1 [Compound 1-56] | 1.3
O=C(O)c1cc(F)c(-c2cccc3c2OCN(C(=O)c2c(Cl)cc(N4CC(OC(F)(F)F)C4)cc2Cl)C3)cc1N1C2CCC1COC2 [Compound 1-14, 4-[3-[2,6-Dichloro-4-[3-(trifluoromethoxy)azetidin-1-yl]benzoyl]-2,4-dihydro-1,3-benzoxazin-8-yl]-5-fluoro-2-(3-oxa-8-azabicyclo[3.2.1]octan-8-yl)benzoic acid] | 4.4
O=C(O)c1cc(F)c(-c2cccc3c2OCN(C(=O)c2c(Cl)cc(N4CC(N5CC(OC(F)F)C5)C4)cc2Cl)C3)cc1N1C2CCC1COC2 [Compound 11-4, 4-[3-[2,6-Dichloro-4-[3-[3-(difluoromethoxy)azetidin-1-yl]azetidin-1-yl]benzoyl]-2,4-dihydro-1,3-benzoxazin-8-yl]-5-fluoro-2-(3-oxa-8-azabicyclo[3.2.1]octan-8-yl)benzoic acid] | 2
CC[C@@H]1CN(C)CCN1c1cc(Cl)c(C(=O)N2COc3c(cccc3-c3cc(N4C5CCC4COC5)c(C(=O)O)cc3F)C2)c(Cl)c1 [Compound 19-18, 4-[3-[2,6-Dichloro-4-[(2R)-2-ethyl-4-methylpiperazin-1-yl]benzoyl]-2,4-dihydro-1,3-benzoxazin-8-yl]-5-fluoro-2-(3-oxa-8-azabicyclo[3.2.1]octan-8-yl)benzoic acid] | 1.3
